# According to patent US20230346827A1 (priority 2020, published 2023):
# How the values were obtained:
# [1] = system: differentiated lung myofibroblasts + (TNFα and TGFβ); test: BioMAP MyoF system; type: cell-based, human; settings: annotated relative to vehicle controls
# Description: (§1) Cell types and stimuli used in each system are as follows: 3C system [HUVEC + (IL-1β, TNFα and IFNy)], 4H system [HUVEC + (IL-4 and histamine)], LPS system [PBMC and HUVEC + LPS (TLR4 ligand)], SAg system [PBMC and HUVEC + TCR ligands], BT system [CD19+ B cells and PBMC + (α-IgM and TCR ligands)], BF4T system [bronchial epithelial cells and HDFn + (TNFα and IL-4)], BE3C system [bronchial epithelial cells + (IL-1β, TNFα and IFNy)], CASM3C system [coronary artery smooth muscle cells + (IL-1 β, TNFα and IFNy)], HDF3CGF system [HDFn + (IL-1β, TNFα, IFNy, EGF, bFGF and PDGF-BB)], KF3CT system [keratinocytes and HDFn + (IL-1β, TNFα, IFNy and TGFβ)], MyoF system [differentiated lung myofibroblasts + (TNFα and TGFβ)] and Mphg system [HUVEC and M1 macrophages + Zymosan (TLR2 ligand)].
# (§2) Systems are derived from either single cell types or co-culture systems. Adherent cell types are cultured in 96 or 384-well plates until confluence, followed by the addition of PBMC (SAg and LPS systems). […] Soluble factors from supernatants are quantified using either HTRF® detection, bead-based multiplex immunoassay or capture ELISA. Overt adverse effects of test agents on cell proliferation and viability (cytotoxicity) are detected by sulforhodamine B (SRB) staining, for adherent cells, and alamarBlue® reduction for cells in suspension. […]
# [2] = system: HUVEC and M1 macrophages + Zymosan (TLR2 ligand); test: BioMAP Mphg system; type: cell-based, human; settings: annotated relative to vehicle controls
# Description: as §1, §2
# [3] = system: SARS-CoV-2; settings: incubation of SARS-CoV-2 with exogenous LMW-DS; cited from earlier work
# [4] = system: ALS patients; test: Serum metabolites (HPLC) in ALS patients before/after five weekly LMW-DS 1.0 mg/kg s.c. (Example 12); type: in vivo, human; settings: post- vs pre-treatment
# Experimental: After an initial screening visit, patients had five weekly dosing of a single LMW-DS (ILB®, Tikomed AB, Viken, Sweden, WO 2016/076780) injection of 1.0 mg/kg body weight in saline into the subcutaneous fat of the lower abdomen.
# Peripheral venous blood samples were been collected from the patients after at least 15 minutes of complete rest, using the standard tourniquet procedure, from the antecubital vein into a single VACUETTE® polypropylene tube containing serum separator and clot activator (Greiner-Bio One GmbH, Kremsmunster, Austria). After 30 minutes at room temperature, blood withdrawals were centrifuged at 1,890 × g for 10 min and the resulting serum samples were stored at -20° C. until analysis.
# After defrost, an aliquot of 500 µl of each serum sample was supplemented with 1 ml of HPLC-grade acetonitrile, vortexed for 60 seconds, centrifuged at the maximum speed in a top-bench centrifuge to precipitate proteins. Supernatants were washed with large volumes of HPLC-grade chloroform to remove organic solvent, centrifuged and the upper aqueous phases were transferred in different tubes, clearly labeled to identify the sample and stored at -80° C. until analyzed to determine different water-soluble compounds.
# A second aliquot of about 300 µl of each serum sample was light-protected and then processed to extract fat-soluble antioxidants using a method described in detail elsewhere (Lazzarino et al., Single-step preparation of selected biological fluids for the high performance liquid chromatographic analysis of fat-soluble vitamins and antioxidants. J Chromatogr A. 2017; 1527: 43-52.). Briefly, samples were supplemented with 1 ml of HPLC-grade acetonitrile, vigorously vortexed for 60 s and incubated at 37° C. for 1 h in a water bath under agitation, to allow the full extraction of lipid soluble compounds. Samples were then centrifuged at 20,690 × g for 15 min at 4 C to precipitate proteins and the clear supernatants were saved at -80° C. until the HPLC analysis of fat-soluble vitamins and antioxidants.
# In deproteinized serum samples, the following water-soluble compounds were separated and quantified by HPLC, according to methods described elsewhere (Tavazzi et al., Simultaneous high performance liquid chromatographic separation of purines, pyrimidines, N-acetylated amino acids, and dicarboxylic acids for the chemical diagnosis of inborn errors of metabolism. Clin Biochem. 2005; 38: 997-1008; Romitelli et al., Comparison of nitrite/nitrate concentration in human plasma and serum samples measured by the enzymatic batch Griess assay, ion-pairing HPLC and ion-trap GC-MS: The importance of a correct removal of proteins in the Griess assay. J Chromatogr B Analyt Technol Biomed Life Sci. 2007; 851: 257-267; Amorini et al., Metabolic profile of amniotic fluid as a biochemical tool to screen for inborn errors of metabolism and fetal anomalies. Mol Cell Biochem. 2012; 359: 205-216): hypoxhantine, xanthine, uric acid, malondialdehyde (MDA), nitrite, nitrate, N-acetylaspartate (NAA), citrulline (CITR), alanine (ALA), and ornithine (ORN).
# The following fat-soluble vitamins and antioxidants in deproteinized serum samples were separated and quantified by HPLC according to a method as previously described (Lazzarino et al., Cerebrospinal fluid ATP metabolites in multiple sclerosis. Mult Scler J. 2010; 16: 549-554): α-tocopherol (vitamin E) and γ-tocopherol. In addition to the abovementioned fat-soluble antioxidants and vitamins, also the concentration of total bilirubin was determined in serum samples.
# Comparison of the Pre- and Post-treatment subgroups was performed by the two-tailed Student’s t-test for paired samples. The comparison of each subgroup with the group of control healthy subjects was carried out by the two-tailed non-parametric Mann-Whitney U-test for unpaired observations. Differences with p < 0.05 were considered statistically significant.
substance,measurement,setting,value
sodium salt of dextran sulfate [LMW-DS],Increased biomarker activity,[1],IL-8
same,Increased biomarker activity,[2],"IL-8, CD69"
same,SARS-CoV-2 attachment to human epithelial cell lines,[3],reduces attachment
same,serum ALA,[4],normalized
same,serum CITR,[4],ameliorated
same,serum MDA,[4],decreased
same,serum NAA,[4],Significantly lower
same,serum ORN/CITR ratio,[4],ameliorated
same,serum nitrate,[4],decreased
same,serum nitrite + nitrate,[4],decreased
same,serum sum of oxypurines,[4],decreased
same,serum total bilirubin,[4],decreased
same,serum uric acid,[4],decreased
same,serum α-tocopherol,[4],ameliorated
same,serum γ-tocopherol,[4],ameliorated
